Calls of active or inactive are those of the source. No rule for the calls is given here.
Tested on: CCRIS mutagenicity, Ames/micronucleus/aberration tests
Assay: CCRIS mutagenicity studies
[1] = Test System: AMES SALMONELLA TYPHIMURIUM, Strain/Indicator: TA98, Metabolic Activation: NONE, Method: STANDARD PLATE
[2] = Test System: AMES SALMONELLA TYPHIMURIUM, Strain/Indicator: TA100, Metabolic Activation: NONE, Method: STANDARD PLATE
[3] = Test System: AMES SALMONELLA TYPHIMURIUM, Strain/Indicator: TA1535, Metabolic Activation: NONE, Method: STANDARD PLATE
[4] = Test System: AMES SALMONELLA TYPHIMURIUM, Strain/Indicator: TA1537, Metabolic Activation: NONE, Method: STANDARD PLATE
[5] = Test System: AMES SALMONELLA TYPHIMURIUM, Strain/Indicator: TA1538, Metabolic Activation: NONE, Method: STANDARD PLATE
[6] = Test System: AMES SALMONELLA TYPHIMURIUM, Strain/Indicator: TA98, Metabolic Activation: S-9, Method: STANDARD PLATE
[7] = Test System: AMES SALMONELLA TYPHIMURIUM, Strain/Indicator: TA100, Metabolic Activation: S-9, Method: STANDARD PLATE
[8] = Test System: AMES SALMONELLA TYPHIMURIUM, Strain/Indicator: TA97, Metabolic Activation: NONE, Method: STANDARD PLATE
[9] = Test System: AMES SALMONELLA TYPHIMURIUM, Strain/Indicator: TA102, Metabolic Activation: NONE, Method: STANDARD PLATE

## NC(=O)c1ccc(N)cc1
Test System: AMES SALMONELLA TYPHIMURIUM, Strain/Indicator: TA98, Metabolic Activation: HAMSTER, LIVER, S-9, AROCLOR 1254, Method: STANDARD PLATE
  mutagenic call: inactive; negative
[1]
  mutagenic call: inactive; negative
Test System: AMES SALMONELLA TYPHIMURIUM, Strain/Indicator: TA98, Metabolic Activation: RAT, LIVER, S-9, AROCLOR 1254, Method: STANDARD PLATE
  mutagenic call: inactive; negative
Test System: AMES SALMONELLA TYPHIMURIUM, Strain/Indicator: TA100, Metabolic Activation: HAMSTER, LIVER, S-9, AROCLOR 1254, Method: STANDARD PLATE
  mutagenic call: inactive; negative
[2]
  mutagenic call: inactive; negative
Test System: AMES SALMONELLA TYPHIMURIUM, Strain/Indicator: TA100, Metabolic Activation: RAT, LIVER, S-9, AROCLOR 1254, Method: STANDARD PLATE
  mutagenic call: inactive; negative
Test System: AMES SALMONELLA TYPHIMURIUM, Strain/Indicator: TA1535, Metabolic Activation: HAMSTER, LIVER, S-9, AROCLOR 1254, Method: STANDARD PLATE
  mutagenic call: inactive; negative
[3]
  mutagenic call: inactive; negative
Test System: AMES SALMONELLA TYPHIMURIUM, Strain/Indicator: TA1535, Metabolic Activation: RAT, LIVER, S-9, AROCLOR 1254, Method: STANDARD PLATE
  mutagenic call: inactive; negative
Test System: AMES SALMONELLA TYPHIMURIUM, Strain/Indicator: TA1537, Metabolic Activation: HAMSTER, LIVER, S-9, AROCLOR 1254, Method: STANDARD PLATE
  mutagenic call: inactive; negative
[4]
  mutagenic call: inactive; negative
Test System: AMES SALMONELLA TYPHIMURIUM, Strain/Indicator: TA1537, Metabolic Activation: RAT, LIVER, S-9, AROCLOR 1254, Method: STANDARD PLATE
  mutagenic call: inactive; negative
Test System: AMES SALMONELLA TYPHIMURIUM, Strain/Indicator: TA1538, Metabolic Activation: HAMSTER, LIVER, S-9, AROCLOR 1254, Method: STANDARD PLATE
  mutagenic call: inactive; negative
[5]
  mutagenic call: inactive; negative
Test System: AMES SALMONELLA TYPHIMURIUM, Strain/Indicator: TA1538, Metabolic Activation: RAT, LIVER, S-9, AROCLOR 1254, Method: STANDARD PLATE
  mutagenic call: inactive; negative
Test System: Mouse lymphoma, Strain/Indicator: L5178Y (tk+/tk-), Metabolic Activation: None, Method: Suspension/plate
  mutagenic call: inactive; negative
Test System: Mouse lymphoma, Strain/Indicator: L5178Y (tk+/tk-), Metabolic Activation: Rat, Liver, S-9, Aroclor 1254, Method: Suspension/plate
  mutagenic call: inactive; negative

## CCCCC[C@@](C)(O)/C=C/[C@H]1[C@H](O)CC(=O)[C@@H]1C/C=C\CCCC(=O)O
[1]
  mutagenic call: inactive; negative
[6]
  mutagenic call: inactive; negative
[2]
  mutagenic call: inactive; negative
[7]
  mutagenic call: inactive; negative
[3]
  mutagenic call: inactive; negative
Test System: AMES SALMONELLA TYPHIMURIUM, Strain/Indicator: TA1535, Metabolic Activation: S-9, Method: STANDARD PLATE
  mutagenic call: inactive; negative
[4]
  mutagenic call: inactive; negative
Test System: AMES SALMONELLA TYPHIMURIUM, Strain/Indicator: TA1537, Metabolic Activation: S-9, Method: STANDARD PLATE
  mutagenic call: inactive; negative
[5]
  mutagenic call: inactive; negative
Test System: AMES SALMONELLA TYPHIMURIUM, Strain/Indicator: TA1538, Metabolic Activation: S-9, Method: STANDARD PLATE
  mutagenic call: inactive; negative
Test System: E. COLI, Strain/Indicator: WP2 UVRA, Metabolic Activation: NONE, Method: STANDARD PLATE
  mutagenic call: inactive; negative
Test System: E. COLI, Strain/Indicator: WP2 UVRA, Metabolic Activation: S-9, Method: STANDARD PLATE
  mutagenic call: inactive; negative

## COc1cc2c(cc1OC)CN(N=O)CC2
Test System: AMES SALMONELLA TYPHIMURIUM, Strain/Indicator: TA98, Metabolic Activation: RAT, LIVER, S-9, AROCLOR 1254, Method: PREINCUBATION
  mutagenic call: active; positive
Test System: AMES SALMONELLA TYPHIMURIUM, Strain/Indicator: TA100, Metabolic Activation: RAT, LIVER, S-9, AROCLOR 1254, Method: PREINCUBATION
  mutagenic call: active; positive
Test System: AMES SALMONELLA TYPHIMURIUM, Strain/Indicator: TA1535, Metabolic Activation: RAT, LIVER, S-9, AROCLOR 1254, Method: PREINCUBATION
  mutagenic call: active; positive
Test System: AMES SALMONELLA TYPHIMURIUM, Strain/Indicator: TA1537, Metabolic Activation: RAT, LIVER, S-9, AROCLOR 1254, Method: PREINCUBATION
  mutagenic call: active; positive
Test System: AMES SALMONELLA TYPHIMURIUM, Strain/Indicator: TA1538, Metabolic Activation: RAT, LIVER, S-9, AROCLOR 1254, Method: PREINCUBATION
  mutagenic call: active; positive

## Cc1cc2nc3c(=O)[nH]c(=O)nc-3n(C[C@H](O)[C@H](O)[C@H](O)CO)c2cc1C
End Point: IN VIVO MICRONUCLEUS, Test System: BONE MARROW POLYCHROMATIC ERYTHROCYTES, Species: MOUSE, Strain/Sex: DDY/MALE, Route: IP
  mutagenic call: inactive; negative
Test System: AMES SALMONELLA TYPHIMURIUM, Strain/Indicator: TA97A, Metabolic Activation: NONE, Method: PREINCUBATION
  mutagenic call: inactive; negative
Test System: AMES SALMONELLA TYPHIMURIUM, Strain/Indicator: TA97A, Metabolic Activation: RAT, CECAL CELL-FREE EXTRACT, Method: PREINCUBATION
  mutagenic call: inactive; negative
Test System: AMES SALMONELLA TYPHIMURIUM, Strain/Indicator: TA97A, Metabolic Activation: RAT, LIVER, S9, AROCLOR 1254, Method: PREINCUBATION
  mutagenic call: inactive; negative
Test System: AMES SALMONELLA TYPHIMURIUM, Strain/Indicator: TA98, Metabolic Activation: NONE, Method: PREINCUBATION
  mutagenic call: inactive; negative
Test System: AMES SALMONELLA TYPHIMURIUM, Strain/Indicator: TA98, Metabolic Activation: RAT, CECAL CELL-FREE EXTRACT, Method: PREINCUBATION
  mutagenic call: inactive; negative
Test System: AMES SALMONELLA TYPHIMURIUM, Strain/Indicator: TA98, Metabolic Activation: RAT, LIVER, S9, AROCLOR 1254, Method: PREINCUBATION
  mutagenic call: inactive; negative
Test System: AMES SALMONELLA TYPHIMURIUM, Strain/Indicator: TA100, Metabolic Activation: NONE, Method: PREINCUBATION
  mutagenic call: inactive; negative
Test System: AMES SALMONELLA TYPHIMURIUM, Strain/Indicator: TA100, Metabolic Activation: RAT, CECAL CELL-FREE EXTRACT, Method: PREINCUBATION
  mutagenic call: inactive; negative
Test System: AMES SALMONELLA TYPHIMURIUM, Strain/Indicator: TA100, Metabolic Activation: RAT, LIVER, S9, AROCLOR 1254, Method: PREINCUBATION
  mutagenic call: inactive; negative
Test System: AMES SALMONELLA TYPHIMURIUM, Strain/Indicator: TA102, Metabolic Activation: RAT, LIVER, S9, AROCLOR 1254, Method: PREINCUBATION
  mutagenic call: inactive; negative

## CC(O)CN(CCN(CC(C)O)CC(C)O)CC(C)O (stereo not drawn)
[8]
  mutagenic call: inactive; negative
Test System: AMES SALMONELLA TYPHIMURIUM, Strain/Indicator: TA97, Metabolic Activation: S-9, Method: STANDARD PLATE
  mutagenic call: inactive; negative
[1]
  mutagenic call: inactive; negative
[6]
  mutagenic call: inactive; negative
[2]
  mutagenic call: inactive; negative
[7]
  mutagenic call: inactive; negative
[9]
  mutagenic call: inactive; negative
Test System: AMES SALMONELLA TYPHIMURIUM, Strain/Indicator: TA102, Metabolic Activation: S-9, Method: STANDARD PLATE
  mutagenic call: inactive; negative
Test System: E.COLI, Strain/Indicator: WP2 (PKM101), Metabolic Activation: NONE, Method: STANDARD PLATE
  mutagenic call: inactive; negative
Test System: E.COLI, Strain/Indicator: WP2 (PKM101), Metabolic Activation: S-9, Method: STANDARD PLATE
  mutagenic call: inactive; negative

## Cn1c(CC(=O)OCCCl)c(C(=O)O)c2ccccc21
[8]
  mutagenic call: inactive; negative
Test System: AMES SALMONELLA TYPHIMURIUM, Strain/Indicator: TA97, Metabolic Activation: RAT, LIVER, S-9, AROCLOR 1254 (4%, 10%), Method: STANDARD PLATE
  mutagenic call: inactive; negative
[1]
  mutagenic call: active; positive
Test System: AMES SALMONELLA TYPHIMURIUM, Strain/Indicator: TA98, Metabolic Activation: RAT, LIVER, S-9, AROCLOR 1254 (4%, 10%), Method: STANDARD PLATE
  mutagenic call: inactive; negative
[2]
  mutagenic call: inactive; negative
Test System: AMES SALMONELLA TYPHIMURIUM, Strain/Indicator: TA100, Metabolic Activation: RAT, LIVER, S-9, AROCLOR 1254 (4%, 10%), Method: STANDARD PLATE
  mutagenic call: inactive; negative
[9]
  mutagenic call: inactive; negative
Test System: AMES SALMONELLA TYPHIMURIUM, Strain/Indicator: TA102, Metabolic Activation: RAT, LIVER, S-9, AROCLOR 1254 (4%, 10%), Method: STANDARD PLATE
  mutagenic call: inactive; negative

Source: PubChem BioAssay AID1259407 (Chemical Carcinogenesis Research Information System (CCRIS), 2018)
